Active and inactive are the calls of the source. The rule behind the calls is not given here.
Tested on: Vero cells SARS-CoV infected, viability, ATP luminescence
Test: PubChem AID 488877

## CC(C)(C)NC(=O)C(c1cccnc1)N(C(=O)c1ccco1)c1ccc(C(C)(C)C)cc1 (stereo unspecified)
  EC50: > 10 µM (inactive)
